{"source": "patent US9328106B2", "about": "“Cyclic ether pyrazol-4-yl-heterocyclyl-carboxamide compounds and methods of use” (Genentech, Inc., priority 2012, dated 2016)"}
{"target": "PIM1 (Homo sapiens (Human), UniProt P11309)", "sequence (P11309 whole entry)": "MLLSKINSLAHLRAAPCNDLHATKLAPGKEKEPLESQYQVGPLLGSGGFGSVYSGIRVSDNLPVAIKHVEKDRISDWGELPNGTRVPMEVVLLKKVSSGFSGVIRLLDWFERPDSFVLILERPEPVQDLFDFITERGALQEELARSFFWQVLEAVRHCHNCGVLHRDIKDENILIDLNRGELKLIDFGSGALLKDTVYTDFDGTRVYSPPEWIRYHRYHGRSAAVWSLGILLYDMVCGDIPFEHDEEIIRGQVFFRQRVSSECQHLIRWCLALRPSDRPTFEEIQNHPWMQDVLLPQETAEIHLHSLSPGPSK", "test": "biochemical", "type": "biochemical", "settings": "20 pM PIM1, 1 μM FAM-peptide, 10 μM ATP, 90 minutes at room temperature; read-out: PIM1 LC3K (KI)", "units": {"Ki": "nM"}, "procedure": "Reaction Buffer contained 10 mM HEPES, pH 7.2, 10 mM MgCl2, 0.01% Tween 20, 2 mM DTT. Termination Buffer contained 190 mM HEPES, pH 7.2, 0.015% Brij-35, 0.2% Coating Reagent 3 (Caliper Life Sciences, Hopkinton, Mass.), 20 mM EDTA. Separation Buffer contained 100 mM HEPES, pH 7.2, 0.015% Brij-35, 0.1% Coating Reagent 3, 1:200 Coating Reagent 8 (Caliper Life Sciences, Hopkinton, Mass.), 10 mM EDTA and 5% DMSO.\nPIM reactions were carried out in a final volume of 10 μL per well in a 384-well plate. […] After 90 minutes of incubation at room temperature, the phosphorylation reaction was stopped by the addition of 10 μL Termination Buffer. The product and substrate in each independent reaction were separated on a 12-sipper microfluidic chip (Caliper Life Sciences, Hopkinton, Mass.) run on a Caliper LC3000® (Caliper Life Sciences, Hopkinton, Mass.). The separation of product and substrate was optimized by choosing voltages and pressure using Caliper's Optimizer software (Hopkinton, Mass.). The separation conditions used a downstream voltage of −500V, an upstream voltage of −2150V, and a screening pressure of −1.2 psi. […] Substrate conversion was calculated from the electropherogram using HTS Well Analyzer software (Caliper Life Sciences, Hopkinton, Mass.). Ki values for the test compound were calculated."}
{"smiles": "Cn1ncc(NC(=O)c2csc(-c3cnn(C4CC4)c3)n2)c1[C@@H]1CC[C@@H](N)[C@H](F)CO1", "note": "[Example 235, N-(5-((2S,5R,6S)-5-amino-6-fluorooxepan-2-yl)-1-methyl-1H-pyrazol-4-yl)-2-(1-cyclopropyl-1H-pyrazol-4-yl)thiazole-4-carboxamide]", "Ki": 0.068}
{"smiles": "Cc1nn(C)cc1-c1nc(C(=O)Nc2cnn(C)c2[C@@H]2CC[C@@H](N)[C@H](F)CO2)cs1", "note": "[Example 241, N-(5-((2S,5R,6S)-5-amino-6-fluorooxepan-2-yl)-1-methyl-1H-pyrazol-4-yl)-2-(1,3-dimethyl-1H-pyrazol-4-yl)thiazole-4-carboxamide]", "Ki": 0.283}
{"smiles": "Cn1ncc(NC(=O)c2nc(-c3c(F)cccc3F)sc2N)c1[C@]12CC[C@H](O1)[C@@H](O)CC2", "note": "[Example 106, 5-amino-2-(2,6-difluorophenyl)-N-(5-((1S,4S,5S)-4-hydroxy-8-oxabicyclo[3.2.1]octan-1-yl)-1-methyl-1H-pyrazol-4-yl)thiazole-4-carboxamide]", "Ki": 0.032}
{"smiles": "Cn1ncc(NC(=O)c2csc(-n3cc4c(n3)CCCC4)n2)c1[C@@H]1CC[C@@H](N)[C@H](F)CO1", "note": "[Example 390, N-(5-((2S,5R,6S)-5-amino-6-fluorooxepan-2-yl)-1-methyl-1H-pyrazol-4-yl)-2-(4,5,6,7-tetrahydro-2H-indazol-2-yl)thiazole-4-carboxamide]", "Ki": 0.267}
{"smiles": "Cn1ncc(NC(=O)c2nc(-c3c(F)cccc3F)sc2N)c1C1C[C@@H](N)[C@H](F)CCO1", "note": "(stereo partly drawn) [Example 127, 5-amino-N-(5-((4R,5R)-4-amino-5-fluorooxepan-2-yl)-1-methyl-1H-pyrazol-4-yl)-2-(2,6-difluorophenyl)thiazole-4-carboxamide]", "Ki": 0.112}
{"smiles": "CO[C@H]1C[C@H](c2c(NC(=O)c3nc(-c4c(F)cccc4F)sc3N)cnn2C)OCC[C@@H]1N", "note": "[Example 138, 5-amino-N-(5-((2R,4S,5S)-5-amino-4-methoxyoxepan-2-yl)-1-methyl-1H-pyrazol-4-yl)-2-(2,6-difluorophenyl)thiazole-4-carboxamide]", "Ki": 1.87}
{"smiles": "C[C@H]1O[C@@H](c2c(NC(=O)c3nc(-c4c(F)cccc4F)sc3N)cnn2C)CC(F)(F)[C@@]1(C)N", "note": "[Example 184, 5-Amino-N-(5-((2R,5S,6R)-5-amino-4,4-difluoro-5,6-dimethyltetrahydro-2H-pyran-2-yl)-1-methyl-1H-pyrazol-4-yl)-2-(2,6-difluorophenyl)thiazole-4-carboxamide]", "Ki": 0.484}
{"smiles": "C[C@@H]1C[C@H](N)CC[C@H](c2c(NC(=O)c3nc(-c4c(F)cccc4F)sc3N)cnn2C)O1", "note": "[Example 120, 5-amino-N-(5-((2R,5R,7R)-5-amino-7-methyloxepan-2-yl)-1-methyl-1H-pyrazol-4-yl)-2-(2,6-difluorophenyl)thiazole-4-carboxamide]", "Ki": 0.081}
{"smiles": "COC1(c2c(NC(=O)c3nc(-c4ncccc4F)sc3N)cnn2C)CCCCO1", "note": "(stereo not drawn) [Example 105, 5-amino-2-(3-fluoro-2-pyridyl)-N-[5-(2-methoxytetrahydropyran-2-yl)-1-methyl-pyrazol-4-yl]thiazole-4-carboxamide]", "Ki": 0.118}
{"smiles": "Cc1cccc(F)c1-c1nc(C(=O)Nc2cnn(C)c2[C@@H]2CC[C@@H](N)[C@H](F)CO2)c(C)s1", "note": "[Example 369, N-[5-[(2S,5R,6S)-5-amino-6-fluoro-oxepan-2-yl]-1-methyl-pyrazol-4-yl]-2-(2-fluoro-6-methyl-phenyl)-5-methyl-thiazole-4-carboxamide]", "Ki": 3.59}
{"smiles": "Cc1ccc(F)c(-c2nc(C(=O)Nc3cnn(C)c3[C@@H]3CC[C@@H](N)[C@@H](F)CO3)c(N)s2)c1", "note": "[Example 274, 5-amino-N-(5-((2S,5R,6R)-5-amino-6-fluorooxepan-2-yl)-1-methyl-1H-pyrazol-4-yl)-2-(2-fluoro-5-methylphenyl)thiazole-4-carboxamide]", "Ki": 0.02}
{"smiles": "CCC(=O)c1cc(F)c(-c2nc(C(=O)Nc3cnn(C)c3[C@@H]3CC[C@@H](N)[C@H](F)CO3)ccc2F)c(F)c1", "note": "[Example 205, N-(5-((2S,5R,6S)-5-amino-6-fluorooxepan-2-yl)-1-methyl-1H-pyrazol-4-yl)-6-(2,6-difluoro-4-propionylphenyl)-5-fluoropicolinamide]", "Ki": 0.034}
{"smiles": "Cn1ncc(NC(=O)c2nc(-c3c(F)cccc3F)sc2N)c1[C@H]1OC[C@@](C)(CO)CO1", "note": "[Example 166, 5-Amino-2-(2,6-difluorophenyl)-N-[5-[5-(hydroxymethyl)-5-methyl-1,3-dioxan-2-yl]-1-methyl-pyrazol-4-yl]thiazole-4-carboxamide]", "Ki": 0.514}
{"smiles": "Cn1ncc(NC(=O)c2nc(-c3c(F)ccc(F)c3F)sc2N)c1[C@@H]1CC[C@@H](N)[C@@H](F)CO1", "note": "[Example 260, 5-amino-N-(5-((2S,5R,6R)-5-amino-6-fluorooxepan-2-yl)-1-methyl-1H-pyrazol-4-yl)-2-(2,3,6-trifluorophenyl)thiazole-4-carboxamide]", "Ki": 0.004}
{"smiles": "CO[C@H]1CO[C@H](c2c(NC(=O)c3nc(-c4cc(F)cc(F)c4F)sc3N)cnn2C)CC[C@H]1N", "note": "[Example 263, 5-amino-N-(5-((2S,5R,6R)-5-amino-6-methoxyoxepan-2-yl)-1-methyl-1H-pyrazol-4-yl)-2-(2,3,5-trifluorophenyl)thiazole-4-carboxamide]", "Ki": 0.127}
{"smiles": "CC(O)c1cc(F)c(-c2nc(C(=O)Nc3cnn(C)c3[C@@H]3CC[C@@H](N)[C@@H](F)CO3)ccc2F)c(F)c1", "note": "(stereo partly drawn) [Example 210, N-(5-((2S,5R,6R)-5-amino-6-fluorooxepan-2-yl)-1-methyl-1H-pyrazol-4-yl)-6-(2,6-difluoro-4-(1-hydroxyethyl)phenyl)-5-fluoropicolinamide]", "Ki": 0.053}
{"smiles": "Cn1ncc(NC(=O)c2csc(-c3cnn(C)c3C(F)(F)F)n2)c1[C@@H]1CC[C@@H](N)[C@@H](F)CO1", "note": "[Example 283, N-(5-((2S,5R,6R)-5-amino-6-fluorooxepan-2-yl)-1-methyl-1H-pyrazol-4-yl)-2-(1-methyl-5-(trifluoromethyl)-1H-pyrazol-4-yl)thiazole-4-carboxamide]", "Ki": 0.171}
{"smiles": "Cn1ncc(NC(=O)c2csc(-n3ncc4c3CCCC4)n2)c1[C@@H]1CC[C@@H](N)[C@H](F)CO1", "note": "[Example 389, N-(5-((2S,5R,6S)-5-amino-6-fluorooxepan-2-yl)-1-methyl-1H-pyrazol-4-yl)-2-(4,5,6,7-tetrahydro-1H-indazol-1-yl)thiazole-4-carboxamide]", "Ki": 0.02}
{"smiles": "CC[C@]1(CO)CO[C@@H](c2c(NC(=O)c3nc(-c4c(F)cccc4F)sc3N)cnn2C)OC1", "note": "[Example 163, 5-Amino-2-(2,6-difluorophenyl)-N-[5-[5-ethyl-5-(hydroxymethyl)-1,3-dioxan-2-yl]-1-methyl-pyrazol-4-yl]thiazole-4-carboxamide]", "Ki": 1.26}
{"smiles": "Cn1ncc(NC(=O)c2ccc(F)c(-c3c(F)cc(Cl)cc3F)n2)c1[C@@H]1CC[C@@H](N)[C@H](F)CO1", "note": "[Example 375, N-(5-((2S,5R,6S)-5-amino-6-fluorooxepan-2-yl)-1-methyl-1H-pyrazol-4-yl)-6-(4-chloro-2,6-difluorophenyl)-5-fluoropicolinamide]", "Ki": 0.036}
{"smiles": "C[C@@H]1O[C@H](c2c(NC(=O)c3nc(-c4c(F)cccc4F)sc3N)cnn2C)CC(F)(F)[C@]1(C)N", "note": "[Example 185, 5-Amino-N-(5-((2S,5R,6S)-5-amino-4,4-difluoro-5,6-dimethyltetrahydro-2H-pyran-2-yl)-1-methyl-1H-pyrazol-4-yl)-2-(2,6-difluorophenyl)thiazole-4-carboxamide]", "Ki": 4.35}
